The values that follow come from the NIST ThermoML archive (doi:10.1016/j.jct.2004.07.008).

Numbers after ± are expanded uncertainties.

For data set [1] the following is noted: 100 kPa, Liquid.
A short description of data set [2]: xn = mol fraction of the nth substance listed. As to conditions: 278.15 K; 100 kPa; Liquid; x2 = 0.

A word on the mass density: it is mass per unit of volume. On to `CCNCC` [diethylamine], for which the mass density in data set [1] (278.15 K) worked out at 719.94 ± 1.2 kg/m3; in data set [1] (288.15 K) it was 709.52 ± 1.2 kg/m3; in data set [1] (293.15 K) it was 704.59 ± 1.2 kg/m3; in data set [1] (298.15 K) it was 698.97 ± 1.2 kg/m3; in data set [1] (308.15 K), 688.29 ± 1.3 kg/m3.

Take `O` [water] + CCNCC: in data set [2], the mass density amounted to 999.964 ± 0.25 kg/m3.
